Legend:
[1] = tested on: Tyrosine-protein kinase ABL1 (Homo sapiens), P00519 [E255K]; conditions: Compound concentration 1000.0 nM
[2] = biological target: Cyclin-dependent kinase 14 (Homo sapiens) (UniProt O94921); conditions: Compound concentration 1000.0 nM
[3] = biological target: 5-hydroxytryptamine receptor 1B (Homo sapiens) (UniProt P28222); conditions: Compound concentration 10.0 uM
[4] = biological target: Tyrosine-protein kinase ITK/TSK (Homo sapiens) (UniProt Q08881); conditions: Compound concentration 1000.0 nM
[5] = tested on: Tyrosine-protein kinase ABL1 (Homo sapiens), P00519 [M351T]; conditions: Compound concentration 1000.0 nM
[6] = tested on: Phosphatidylinositol 4,5-bisphosphate 3-kinase catalytic subunit alpha isoform (Homo sapiens), P42336 [C420R]; conditions: Compound concentration 1000.0 nM
[7] = biological target: Aurora kinase A (Homo sapiens) (UniProt O14965); conditions: Compound concentration 1000.0 nM
[8] = biological target: Serine/threonine-protein kinase NLK (Homo sapiens) (UniProt Q9UBE8); conditions: Compound concentration 1000.0 nM
[9] = biological target: D(1B) dopamine receptor (Homo sapiens) (UniProt P21918); conditions: Compound concentration 10.0 uM
[10] = biological target: Interleukin-1 receptor-associated kinase 4 (Homo sapiens) (UniProt Q9NWZ3); conditions: Compound concentration 1000.0 nM
[11] = biological target: Serine/threonine-protein kinase WNK3 (Homo sapiens) (UniProt Q9BYP7); conditions: Compound concentration 1000.0 nM
[12] = biological target: Cyclin-dependent kinase 7 (Homo sapiens) (UniProt P50613); conditions: Compound concentration 1000.0 nM
[13] = biological target: Histamine H3 receptor (Homo sapiens, UniProt Q9Y5N1); conditions: Compound concentration 10.0 uM
[14] = biological target: Ephrin type-A receptor 8 (Homo sapiens) (UniProt P29322); conditions: Compound concentration 1000.0 nM
[15] = biological target: Ephrin type-A receptor 1 (Homo sapiens) (UniProt P21709); conditions: Compound concentration 1000.0 nM
[16] = biological target: Receptor tyrosine-protein kinase erbB-3 (Homo sapiens) (UniProt P21860); conditions: Compound concentration 1000.0 nM
[17] = tested on: Epidermal growth factor receptor (Homo sapiens), P00533 [L858R,T790M]; conditions: Compound concentration 1000.0 nM
[18] = tested on: ALK tyrosine kinase receptor (Homo sapiens), Q9UM73 [C1156Y]; conditions: Compound concentration 1000.0 nM
[19] = tested on: Receptor-type tyrosine-protein kinase FLT3 (Homo sapiens), P36888 [D835Y]; conditions: Compound concentration 1000.0 nM
[20] = biological target: Rhodopsin kinase GRK7 (Homo sapiens) (UniProt Q8WTQ7); conditions: Compound concentration 1000.0 nM
[21] = tested on: Tyrosine-protein kinase ABL1 (Homo sapiens), P00519 [T315I]; conditions: Compound concentration 1000.0 nM
[22] = biological target: Ephrin type-B receptor 3 (Homo sapiens) (UniProt P54753); conditions: Compound concentration 1000.0 nM
[23] = biological target: Mitogen-activated protein kinase kinase kinase 12 (Homo sapiens) (UniProt Q12852); conditions: Compound concentration 1000.0 nM
[24] = biological target: Serine/threonine-protein kinase Nek7 (Homo sapiens) (UniProt Q8TDX7); conditions: Compound concentration 1000.0 nM
[25] = biological target: Tyrosine-protein kinase Blk (Homo sapiens) (UniProt P51451); conditions: Compound concentration 1000.0 nM
[26] = tested on: Epidermal growth factor receptor (Homo sapiens), P00533 [UNDEFINED MUTATION]; conditions: Compound concentration 1000.0 nM
[27] = biological target: Tyrosine-protein kinase JAK1 (Homo sapiens) (UniProt P23458); conditions: Compound concentration 1000.0 nM
[28] = biological target: D(2) dopamine receptor (Homo sapiens) (UniProt P14416); conditions: Compound concentration 10.0 uM
[29] = biological target: Serine/threonine-protein kinase MRCK beta (Homo sapiens) (UniProt Q9Y5S2); conditions: Compound concentration 1000.0 nM
[30] = biological target: Serine/threonine-protein kinase SBK1 (Homo sapiens) (UniProt Q52WX2); conditions: Compound concentration 1000.0 nM
[31] = biological target: MAP kinase-interacting serine/threonine-protein kinase 1 (Homo sapiens) (UniProt Q9BUB5); conditions: Compound concentration 1000.0 nM
[32] = biological target: Serine/threonine-protein kinase 38 (Homo sapiens) (UniProt Q15208); conditions: Compound concentration 1000.0 nM
[33] = biological target: Serine/threonine-protein kinase STK11 (Homo sapiens) (UniProt Q15831); conditions: Compound concentration 1000.0 nM
[34] = biological target: Mitogen-activated protein kinase 6 (Homo sapiens) (UniProt Q16659); conditions: Compound concentration 1000.0 nM
[35] = biological target: Serine/threonine-protein kinase Sgk2 (Homo sapiens) (UniProt Q9HBY8); conditions: Compound concentration 1000.0 nM
[36] = biological target: Myosin light chain kinase family member 4 (Homo sapiens) (UniProt Q86YV6); conditions: Compound concentration 1000.0 nM
[37] = biological target: G protein-coupled receptor kinase 3 (Homo sapiens) (UniProt P35626); conditions: Compound concentration 1000.0 nM
[38] = biological target: Receptor tyrosine-protein kinase erbB-4 (Homo sapiens) (UniProt Q15303); conditions: Compound concentration 1000.0 nM
[39] = biological target: Serine/threonine-protein kinase MAK (Homo sapiens) (UniProt P20794); conditions: Compound concentration 1000.0 nM
[40] = biological target: Phosphatidylinositol 4,5-bisphosphate 3-kinase catalytic subunit delta isoform (Homo sapiens) (UniProt O00329); conditions: Compound concentration 1000.0 nM
[41] = biological target: Dual specificity mitogen-activated protein kinase kinase 7 (Homo sapiens) (UniProt O14733); conditions: Compound concentration 1000.0 nM
[42] = biological target: Insulin receptor (Homo sapiens) (UniProt P06213); conditions: Compound concentration 1000.0 nM
[43] = tested on: RS4-11; experiment: CellTiter-Glo Luminescent Cell Viability Assay (BCL-2 dependent cell line RS4-11); type: functional, cell-based; conditions: Homo sapiens
[44] = biological target: Activin receptor type-1-like (Homo sapiens) (UniProt P37023); conditions: Compound concentration 1000.0 nM
[45] = biological target: Dual specificity tyrosine-phosphorylation-regulated kinase 1A (Homo sapiens) (UniProt Q13627); conditions: Compound concentration 1000.0 nM

Sequence of ALK tyrosine kinase receptor (Homo sapiens), Q9UM73 [C1156Y] (Q9UM73 whole entry C1156Y, looked up): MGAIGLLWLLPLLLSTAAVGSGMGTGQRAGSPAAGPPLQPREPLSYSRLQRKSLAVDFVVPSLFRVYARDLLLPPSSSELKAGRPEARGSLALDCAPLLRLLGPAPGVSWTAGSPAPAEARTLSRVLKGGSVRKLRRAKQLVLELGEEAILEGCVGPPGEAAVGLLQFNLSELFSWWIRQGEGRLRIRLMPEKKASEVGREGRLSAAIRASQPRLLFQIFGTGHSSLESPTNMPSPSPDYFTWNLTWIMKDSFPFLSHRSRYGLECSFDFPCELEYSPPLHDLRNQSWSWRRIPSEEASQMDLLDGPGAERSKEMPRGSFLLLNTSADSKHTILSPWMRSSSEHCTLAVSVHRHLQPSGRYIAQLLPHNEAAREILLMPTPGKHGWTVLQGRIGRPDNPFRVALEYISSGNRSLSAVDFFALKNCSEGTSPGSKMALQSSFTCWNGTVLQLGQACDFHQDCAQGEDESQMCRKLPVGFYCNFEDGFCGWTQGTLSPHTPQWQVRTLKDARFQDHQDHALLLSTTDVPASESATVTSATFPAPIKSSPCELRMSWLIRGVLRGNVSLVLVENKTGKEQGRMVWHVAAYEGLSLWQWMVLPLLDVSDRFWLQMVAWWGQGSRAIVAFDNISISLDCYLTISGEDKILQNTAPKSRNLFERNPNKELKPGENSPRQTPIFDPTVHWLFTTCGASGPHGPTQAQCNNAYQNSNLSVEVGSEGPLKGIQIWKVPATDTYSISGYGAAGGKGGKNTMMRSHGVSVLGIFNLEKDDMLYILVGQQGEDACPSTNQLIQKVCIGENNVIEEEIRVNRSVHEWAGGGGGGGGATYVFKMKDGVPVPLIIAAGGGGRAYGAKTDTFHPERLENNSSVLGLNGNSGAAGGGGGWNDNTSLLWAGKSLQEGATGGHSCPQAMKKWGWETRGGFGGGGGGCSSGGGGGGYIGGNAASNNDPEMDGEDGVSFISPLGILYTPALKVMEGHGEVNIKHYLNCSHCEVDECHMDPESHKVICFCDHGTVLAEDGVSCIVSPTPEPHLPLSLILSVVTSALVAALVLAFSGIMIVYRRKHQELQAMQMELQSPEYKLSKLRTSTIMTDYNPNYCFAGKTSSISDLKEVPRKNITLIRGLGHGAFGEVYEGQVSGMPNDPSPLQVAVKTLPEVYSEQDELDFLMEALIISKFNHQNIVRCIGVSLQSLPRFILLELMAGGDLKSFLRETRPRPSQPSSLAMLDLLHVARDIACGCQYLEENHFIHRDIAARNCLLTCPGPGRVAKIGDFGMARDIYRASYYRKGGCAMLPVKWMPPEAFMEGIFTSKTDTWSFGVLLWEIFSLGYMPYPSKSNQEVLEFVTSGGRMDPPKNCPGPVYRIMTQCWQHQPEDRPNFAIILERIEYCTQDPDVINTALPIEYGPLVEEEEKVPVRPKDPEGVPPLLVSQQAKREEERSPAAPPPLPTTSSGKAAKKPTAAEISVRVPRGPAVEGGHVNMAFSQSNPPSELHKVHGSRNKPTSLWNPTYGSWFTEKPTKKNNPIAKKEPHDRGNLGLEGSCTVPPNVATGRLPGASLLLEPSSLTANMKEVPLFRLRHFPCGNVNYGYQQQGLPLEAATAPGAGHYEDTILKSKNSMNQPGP
Sequence of Serine/threonine-protein kinase MAK (Homo sapiens) (P20794 whole entry, canonical isoform): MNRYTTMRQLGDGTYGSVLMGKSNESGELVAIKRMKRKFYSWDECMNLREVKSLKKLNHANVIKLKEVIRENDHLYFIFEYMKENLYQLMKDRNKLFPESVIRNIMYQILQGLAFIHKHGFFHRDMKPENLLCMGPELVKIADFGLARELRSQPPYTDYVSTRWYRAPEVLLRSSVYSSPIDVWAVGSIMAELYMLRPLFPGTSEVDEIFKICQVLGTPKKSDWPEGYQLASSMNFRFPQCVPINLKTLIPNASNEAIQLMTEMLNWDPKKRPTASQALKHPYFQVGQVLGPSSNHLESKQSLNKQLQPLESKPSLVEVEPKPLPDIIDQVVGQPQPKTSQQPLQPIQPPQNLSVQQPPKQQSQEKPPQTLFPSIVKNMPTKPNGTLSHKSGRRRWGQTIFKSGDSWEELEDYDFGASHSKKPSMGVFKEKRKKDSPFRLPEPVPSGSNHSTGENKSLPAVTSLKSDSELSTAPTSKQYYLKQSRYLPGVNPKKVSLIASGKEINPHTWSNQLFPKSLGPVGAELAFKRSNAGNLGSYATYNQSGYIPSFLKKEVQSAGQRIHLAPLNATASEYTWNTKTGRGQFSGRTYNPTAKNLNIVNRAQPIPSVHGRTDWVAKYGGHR
Sequence of Cyclin-dependent kinase 14 (Homo sapiens) (O94921 whole entry): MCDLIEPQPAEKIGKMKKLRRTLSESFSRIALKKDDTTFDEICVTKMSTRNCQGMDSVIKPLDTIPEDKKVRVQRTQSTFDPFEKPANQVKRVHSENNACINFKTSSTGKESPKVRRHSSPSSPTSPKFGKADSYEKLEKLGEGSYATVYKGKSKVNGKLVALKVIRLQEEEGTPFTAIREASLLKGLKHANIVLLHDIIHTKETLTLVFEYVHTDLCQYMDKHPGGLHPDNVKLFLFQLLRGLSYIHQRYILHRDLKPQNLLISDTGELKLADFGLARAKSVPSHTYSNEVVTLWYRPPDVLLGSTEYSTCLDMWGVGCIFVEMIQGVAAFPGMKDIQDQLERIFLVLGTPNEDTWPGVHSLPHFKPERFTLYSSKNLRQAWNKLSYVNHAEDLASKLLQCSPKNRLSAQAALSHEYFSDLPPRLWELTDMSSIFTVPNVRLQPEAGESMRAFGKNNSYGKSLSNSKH
Sequence of Tyrosine-protein kinase Blk (Homo sapiens) (P51451 2-505 limits assumed): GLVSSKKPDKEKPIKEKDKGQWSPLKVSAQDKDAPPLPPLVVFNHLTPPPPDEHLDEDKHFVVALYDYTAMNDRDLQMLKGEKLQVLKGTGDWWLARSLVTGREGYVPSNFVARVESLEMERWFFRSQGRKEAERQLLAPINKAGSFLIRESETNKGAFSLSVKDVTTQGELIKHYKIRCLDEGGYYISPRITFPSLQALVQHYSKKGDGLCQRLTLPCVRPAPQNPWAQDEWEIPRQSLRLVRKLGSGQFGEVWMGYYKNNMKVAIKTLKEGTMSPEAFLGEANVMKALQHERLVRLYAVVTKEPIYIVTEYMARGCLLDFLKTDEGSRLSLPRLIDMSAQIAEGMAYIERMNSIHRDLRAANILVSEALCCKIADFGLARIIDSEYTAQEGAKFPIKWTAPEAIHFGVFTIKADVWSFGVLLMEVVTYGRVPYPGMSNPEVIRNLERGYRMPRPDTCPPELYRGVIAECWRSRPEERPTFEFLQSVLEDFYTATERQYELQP
Sequence of Mitogen-activated protein kinase kinase kinase 12 (Homo sapiens) (Q12852 whole entry): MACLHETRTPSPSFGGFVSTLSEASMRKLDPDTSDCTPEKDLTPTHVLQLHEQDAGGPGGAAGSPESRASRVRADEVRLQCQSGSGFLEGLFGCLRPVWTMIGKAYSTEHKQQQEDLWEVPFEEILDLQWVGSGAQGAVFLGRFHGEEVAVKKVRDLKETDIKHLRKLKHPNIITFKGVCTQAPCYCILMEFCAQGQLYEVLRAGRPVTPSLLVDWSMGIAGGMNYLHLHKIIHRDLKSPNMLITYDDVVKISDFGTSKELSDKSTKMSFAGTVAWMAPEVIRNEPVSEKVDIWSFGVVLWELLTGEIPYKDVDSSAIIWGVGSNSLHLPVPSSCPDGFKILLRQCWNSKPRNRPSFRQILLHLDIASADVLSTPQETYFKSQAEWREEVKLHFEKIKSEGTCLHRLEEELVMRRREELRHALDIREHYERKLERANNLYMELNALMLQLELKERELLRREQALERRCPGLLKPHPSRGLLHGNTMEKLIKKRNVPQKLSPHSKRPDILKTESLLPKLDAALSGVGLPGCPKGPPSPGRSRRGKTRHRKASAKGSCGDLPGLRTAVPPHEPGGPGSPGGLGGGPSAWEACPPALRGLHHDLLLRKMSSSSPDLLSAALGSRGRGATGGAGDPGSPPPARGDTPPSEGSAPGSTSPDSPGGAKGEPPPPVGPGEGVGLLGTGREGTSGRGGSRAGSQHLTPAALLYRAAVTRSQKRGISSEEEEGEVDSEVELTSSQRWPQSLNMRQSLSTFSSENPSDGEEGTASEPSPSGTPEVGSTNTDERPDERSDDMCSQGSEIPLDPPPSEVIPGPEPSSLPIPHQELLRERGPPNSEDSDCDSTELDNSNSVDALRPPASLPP
Sequence of Ephrin type-A receptor 1 (Homo sapiens) (P21709 whole entry): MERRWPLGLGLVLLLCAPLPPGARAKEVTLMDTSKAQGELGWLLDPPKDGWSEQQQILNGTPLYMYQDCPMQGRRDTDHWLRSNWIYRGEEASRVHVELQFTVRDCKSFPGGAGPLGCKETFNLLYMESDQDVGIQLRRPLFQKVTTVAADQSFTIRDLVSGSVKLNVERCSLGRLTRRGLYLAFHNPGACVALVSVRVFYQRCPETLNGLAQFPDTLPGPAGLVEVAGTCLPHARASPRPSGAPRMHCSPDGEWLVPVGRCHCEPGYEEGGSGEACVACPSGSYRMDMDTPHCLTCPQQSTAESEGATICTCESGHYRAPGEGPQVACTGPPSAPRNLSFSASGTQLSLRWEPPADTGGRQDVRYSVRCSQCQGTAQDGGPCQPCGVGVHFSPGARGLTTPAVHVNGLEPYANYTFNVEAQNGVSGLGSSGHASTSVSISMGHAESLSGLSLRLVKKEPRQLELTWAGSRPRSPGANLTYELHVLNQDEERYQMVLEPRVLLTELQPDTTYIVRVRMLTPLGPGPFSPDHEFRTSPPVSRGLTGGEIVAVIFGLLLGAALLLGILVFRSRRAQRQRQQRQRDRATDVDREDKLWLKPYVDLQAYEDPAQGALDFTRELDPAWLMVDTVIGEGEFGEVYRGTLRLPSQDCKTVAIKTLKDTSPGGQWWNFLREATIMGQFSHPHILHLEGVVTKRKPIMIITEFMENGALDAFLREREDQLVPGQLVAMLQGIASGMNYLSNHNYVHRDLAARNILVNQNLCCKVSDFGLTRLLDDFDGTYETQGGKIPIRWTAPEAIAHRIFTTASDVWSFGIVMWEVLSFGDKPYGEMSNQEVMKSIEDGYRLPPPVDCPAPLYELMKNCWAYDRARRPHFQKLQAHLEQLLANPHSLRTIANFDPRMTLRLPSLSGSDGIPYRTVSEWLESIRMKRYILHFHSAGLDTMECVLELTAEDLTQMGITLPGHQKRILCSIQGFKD

Q: Which residual activity [1] does the source give for `CN(C)CC#Cc1ccc(OCCCc2sc(N3CCc4cccc(C(=O)Nc5nc6ccccc6s5)c4C3)nc2C(=O)O)c(F)c1` [A-1155463] here?
A: 85%

Q: What about the residual activity [2] of the same molecule?
A: 100%

Q: And the inhibition [3]?
A: 20.2%

Q: What about the residual activity [4] of the same molecule?
A: 100%

Q: What about the residual activity [5] of the same molecule?
A: 91%

Q: And the residual activity [6]?
A: 100%

Q: And the residual activity [7]?
A: 92%

Q: What about the residual activity [8] of the same molecule?
A: 80%

Q: And the inhibition [9]?
A: 40.8%

Q: What about the residual activity [10] of the same molecule?
A: 100%

Q: And the residual activity [11]?
A: 100%

Q: And the residual activity [12]?
A: 100%

Q: What about the inhibition [13] of the same molecule?
A: 53.3%

Q: What about the residual activity [14] of the same molecule?
A: 100%

Q: And the residual activity [15]?
A: 100%

Q: And the residual activity [16]?
A: 100%

Q: What about the residual activity [17] of the same molecule?
A: 100%

Q: What about the residual activity [18] of the same molecule?
A: 100%

Q: What about the residual activity [19] of the same molecule?
A: 83%

Q: What about the residual activity [20] of the same molecule?
A: 97%

Q: What about the residual activity [21] of the same molecule?
A: 51%

Q: What about the residual activity [22] of the same molecule?
A: 100%

Q: What about the residual activity [23] of the same molecule?
A: 100%

Q: And the residual activity [24]?
A: 99%

Q: And the residual activity [25]?
A: 92%

Q: And the residual activity [26]?
A: 94%

Q: What about the residual activity [27] of the same molecule?
A: 97%

Q: What about the inhibition [28] of the same molecule?
A: 31.5%

Q: And the residual activity [29]?
A: 87%

Q: And the residual activity [30]?
A: 100%

Q: And the residual activity [31]?
A: 78%

Q: What about the residual activity [32] of the same molecule?
A: 76%

Q: What about the residual activity [33] of the same molecule?
A: 100%

Q: And the residual activity [34]?
A: 94%

Q: And the residual activity [35]?
A: 100%

Q: What about the residual activity [36] of the same molecule?
A: 99%

Q: What about the residual activity [37] of the same molecule?
A: 92%

Q: And the residual activity [38]?
A: 99%

Q: And the residual activity [39]?
A: 100%

Q: And the residual activity [40]?
A: 100%

Q: And the residual activity [41]?
A: 69%

Q: And the residual activity [42]?
A: 92%

Q: And the EC50 [43]?
A: > 10 µM (not active)

Q: What about the residual activity [44] of the same molecule?
A: 82%

Q: And the residual activity [45]?
A: 88%

Reference: ChEMBL document CHEMBL4507311, “Data for DCP probe A-1155463” (2021)
